Blank lines part the entries; values can stand above or below the molecule they belong to. Calls of active or inactive are those of the source.
Experiments:
[1] = cytotoxicity in HMLE control line with eGFP shRNA, dose response, counter-screen for HMLE_sh_ECad selective toxicity project, cell-based, HMLE_sh_eGFP, luminescence (AID 463074); format: functional, Homo sapiens;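 also: HMLE human mammary epithelial cells expressing control shRNA against eGFP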
[2] = Luminescence Cell-Based Dose Retest to Confirm Inhibitors of Cancer Stem Cells. [Related pubchem assays (depositor defined):AID2717, AID2721]; format: functional; conditions: Homo sapiens
[3] = C. albicans growth with fluconazole, confirmation, fluorescence, retest (AID 2467); format: functional, cell-based
[4] = NIH-3T3 fibroblast cytotoxicity, dose response, cytotoxicity control, cell-based, fluorescence, Alamar Blue, secondary assay (AID 2327); format: functional;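 also: NIH-3T3 mouse fibroblasts cultured with fluconazole at 8 µg/mL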
Cytochrome P450 1A2 = biological target: T1, Cytochrome P450 1A2 (Homo sapiens, UniProt P05177);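 also: PubChem cytochrome P450 panel assay, CYP1A2 panel member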
T1 sequence (P05177 whole entry): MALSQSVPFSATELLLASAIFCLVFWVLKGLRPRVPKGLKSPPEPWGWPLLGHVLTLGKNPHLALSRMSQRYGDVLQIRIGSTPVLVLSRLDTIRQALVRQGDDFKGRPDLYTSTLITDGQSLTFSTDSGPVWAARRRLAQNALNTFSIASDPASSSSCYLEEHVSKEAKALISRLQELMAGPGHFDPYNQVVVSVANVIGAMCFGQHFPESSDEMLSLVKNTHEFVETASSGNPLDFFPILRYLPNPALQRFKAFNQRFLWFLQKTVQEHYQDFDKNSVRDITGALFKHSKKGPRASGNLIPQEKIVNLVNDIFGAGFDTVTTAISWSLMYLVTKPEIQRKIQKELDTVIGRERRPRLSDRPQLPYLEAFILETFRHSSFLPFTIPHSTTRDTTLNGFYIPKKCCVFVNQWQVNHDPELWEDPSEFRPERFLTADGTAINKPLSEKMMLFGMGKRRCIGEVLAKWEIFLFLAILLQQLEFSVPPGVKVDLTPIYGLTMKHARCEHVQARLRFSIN

Cysteine protease ATG4B = biological target: T2, Cysteine protease ATG4B (Homo sapiens, UniProt Q9Y4P1); assay: ATG4B protease inhibitors, dose response, biochemical, fluorescence, set 2 (AID 588584); format: functional
T2 sequence (Q9Y4P1 whole entry): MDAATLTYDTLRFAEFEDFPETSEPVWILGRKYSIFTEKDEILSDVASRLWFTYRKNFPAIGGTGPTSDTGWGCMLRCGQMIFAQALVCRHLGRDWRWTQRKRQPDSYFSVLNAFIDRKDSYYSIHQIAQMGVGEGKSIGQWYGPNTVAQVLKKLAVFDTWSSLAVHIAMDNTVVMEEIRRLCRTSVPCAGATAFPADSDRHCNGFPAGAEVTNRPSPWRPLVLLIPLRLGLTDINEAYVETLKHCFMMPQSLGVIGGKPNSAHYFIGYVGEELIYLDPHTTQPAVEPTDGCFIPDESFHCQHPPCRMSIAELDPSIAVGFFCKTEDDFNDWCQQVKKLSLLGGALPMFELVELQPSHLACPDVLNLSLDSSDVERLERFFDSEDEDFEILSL

Phospholipase A2 = Phospholipase A2 (Homo sapiens, UniProt P04054); assay: PLA2 enzyme inhibitors, dose response, counter-screen for ATG4B inhibitor project, biochemical, set 2 (AID 588586); format: functional
BJ [5] = assay: cells; format: functional, cell-based; conditions: Homo sapiens
BJ [6] = assay: cytotoxicity toward BJ-TERT fibroblasts, dose response, cell-based, RAS-independent, luminescence (AID 1933); format: functional; conditions: Homo sapiens
[7] = cytotoxicity toward DRD oncogenic fibroblasts, dose response, cell-based, non-viral oncogenic, luminescence (AID 1934); format: functional; conditions: Homo sapiens
CAAX prenyl protease 2 [8] = biological target: CAAX prenyl protease 2 (Homo sapiens, UniProt Q9Y256); assay: human Rce1 protease inhibitors, dose response, biochemical, yeast membranes, quenched-peptide fluorescence, cherry-pick (AID 588849)
CAAX prenyl protease 2 [9] = biological target: CAAX prenyl protease 2 (Saccharomyces cerevisiae S288c, UniProt Q03530); format: biochemical
[10] = biological target: Beta-adrenergic receptor kinase 1 (Homo sapiens, UniProt P25098); assay: GRK2 inhibitors displacing RNA aptamer, dose response, biochemical, flow cytometry beads, FAM-aptamer, powder set 1 (AID 588720)
Chain of Beta-adrenergic receptor kinase 1 (P25098 whole entry): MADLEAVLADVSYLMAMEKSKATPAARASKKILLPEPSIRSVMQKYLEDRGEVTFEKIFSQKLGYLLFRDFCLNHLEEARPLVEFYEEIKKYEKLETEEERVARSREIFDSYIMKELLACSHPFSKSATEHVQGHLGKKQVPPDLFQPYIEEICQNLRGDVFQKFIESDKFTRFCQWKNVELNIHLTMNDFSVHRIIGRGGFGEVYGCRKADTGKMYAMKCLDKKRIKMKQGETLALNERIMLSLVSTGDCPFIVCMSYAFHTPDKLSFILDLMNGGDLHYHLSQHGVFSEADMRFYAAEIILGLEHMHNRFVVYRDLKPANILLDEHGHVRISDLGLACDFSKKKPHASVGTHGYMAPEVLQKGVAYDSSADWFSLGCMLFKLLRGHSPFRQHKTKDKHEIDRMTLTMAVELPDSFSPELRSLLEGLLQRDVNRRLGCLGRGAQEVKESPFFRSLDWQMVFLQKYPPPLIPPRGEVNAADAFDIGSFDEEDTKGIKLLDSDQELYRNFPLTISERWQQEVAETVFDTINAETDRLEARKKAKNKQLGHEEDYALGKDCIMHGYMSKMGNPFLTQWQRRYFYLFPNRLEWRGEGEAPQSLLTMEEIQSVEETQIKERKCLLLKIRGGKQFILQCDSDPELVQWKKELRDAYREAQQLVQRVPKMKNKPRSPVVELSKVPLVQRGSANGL

Chain of Phospholipase A2 (P04054 whole entry): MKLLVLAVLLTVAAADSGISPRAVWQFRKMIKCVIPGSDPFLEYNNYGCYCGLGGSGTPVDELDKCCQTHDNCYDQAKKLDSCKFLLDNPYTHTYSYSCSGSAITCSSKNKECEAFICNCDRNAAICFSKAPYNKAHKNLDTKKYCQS
Chain of CAAX prenyl protease 2 (Homo sapiens, UniProt Q9Y256) (Q9Y256 whole entry): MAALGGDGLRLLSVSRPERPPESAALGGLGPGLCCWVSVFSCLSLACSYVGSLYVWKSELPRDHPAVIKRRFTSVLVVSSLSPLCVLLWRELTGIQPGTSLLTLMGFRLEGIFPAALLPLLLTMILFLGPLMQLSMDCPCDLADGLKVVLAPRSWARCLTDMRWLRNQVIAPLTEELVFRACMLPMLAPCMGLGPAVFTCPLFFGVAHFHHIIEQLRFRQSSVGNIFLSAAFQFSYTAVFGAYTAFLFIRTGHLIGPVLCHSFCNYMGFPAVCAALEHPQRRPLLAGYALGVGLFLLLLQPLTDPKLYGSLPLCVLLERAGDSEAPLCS
Chain of CAAX prenyl protease 2 (Saccharomyces cerevisiae S288c, UniProt Q03530) (Q03530 whole entry): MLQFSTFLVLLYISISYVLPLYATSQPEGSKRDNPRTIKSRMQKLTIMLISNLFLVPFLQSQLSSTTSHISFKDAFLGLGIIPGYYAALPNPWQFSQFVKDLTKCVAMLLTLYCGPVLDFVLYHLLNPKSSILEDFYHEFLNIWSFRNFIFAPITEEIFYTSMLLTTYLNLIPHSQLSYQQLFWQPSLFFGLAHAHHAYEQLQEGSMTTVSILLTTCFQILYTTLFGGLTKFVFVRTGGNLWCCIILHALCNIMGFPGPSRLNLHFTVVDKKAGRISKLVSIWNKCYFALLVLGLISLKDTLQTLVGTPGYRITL

SMILES: CCCc1ccc(C2C3=C(CC(C)(C)CC3=O)N=C3C2=C(O)c2ccccc23)cc1 (stereo not drawn)
AC50 [1]: 187 µM (active) | AC50 [2]: 24.9 µM (active) | EC50 [3]: 2.66 µM (active) | EC50 [4]: > 150 µM (inactive) | AC50 (Cytochrome P450 1A2): 6.31 µM (inconclusive)

SMILES: CCC1=Nc2cc(C(=O)NCc3ccco3)ccc2Sc2ccc(Cl)cc21
IC50 (Cysteine protease ATG4B): > 80 µM (inactive) | IC50 (Phospholipase A2): 40.1 µM (inactive) | EC50 (BJ [5]): 20.4 µM (active) | EC50 (BJ [6]): 1.55 µM (active) | EC50 [7]: 1.97 µM (active)

AC50 (CAAX prenyl protease 2 [8]): 23.1 µM (active) | AC50 (CAAX prenyl protease 2 [9]): 57 µM (active)
SMILES: CC1Oc2ccccc2C=C1/C=N/NC(=O)[C@@H](C)NC(=O)OC(C)(C)C (stereo partly drawn)

EC50 [10]: 9.14 µM (active)
SMILES: COc1ccc(NC(=O)CCS(=O)(=O)c2ccc(Br)s2)cc1

— ChEMBL document CHEMBL1201862, “PubChem BioAssay data set” (2004)
